Measured values reported in ChEMBL document CHEMBL1145705, “Flavonoids as inhibitors or enhancers of the cytotoxicity of tumor necrosis factor-alpha in L-929 tumor cells” (J Nat Prod, 1997).
The source made the active and inactive calls. The calls are words filed in the database; no cut-off is given here.

How the values were obtained:
L929 [1] = test: Inhibition of recombinant human TNF-alpha-induced cytotoxicity of mouse L929 cells assessed as survivality preincubated for 15 mins before TNFalpha addition measured after 24 hrs by [methyl-3H]thymidine incorporation assay; format: functional, cell-based
L929 [2] = test: Inhibition of recombinant human TNF-alpha-induced cytotoxicity of mouse L929 cells assessed as survivality preincubated for 15 mins before TNFalpha addition measured after 24 hrs by crystal violet staining; format: functional, cell-based
L929 [3] = test: Inhibition of recombinant human TNF-alpha-induced cytotoxicity of mouse L929 cells assessed as survivality treated with drug after 2 hrs of TNFalpha treatment; format: functional, cell-based
L929 [4] = test: Potentiation of recombinant human TNF-alpha-induced cytotoxicity of mouse L929 cells assessed as survivality treated with drug after 2 hrs of TNFalpha treatment; format: functional, cell-based
L929 [5] = test: Potentiation of recombinant human TNF-alpha-induced cytotoxicity of mouse L929 cells assessed as survivality preincubated for 15 mins before TNFalpha addition measured after 24 hrs by [methyl-3H]thymidine incorporation assay; format: functional, cell-based
L929 [6] = test: Potentiation of recombinant human TNF-alpha-induced cytotoxicity of mouse L929 cells assessed as survivality preincubated for 15 mins before TNFalpha addition measured after 24 hrs by crystal violet staining; format: functional, cell-based
L929 [7] = test: Potentiation of recombinant human TNF-alpha-induced cytotoxicity of mouse L929 cells assessed as survivality at 250 uM preincubated for 15 mins before TNFalpha addition measured after 24 hrs by crystal violet staining; format: functional
L929 [8] = test: Potentiation of recombinant human TNF-alpha-induced cytotoxicity of mouse L929 cells assessed as survivality at 250 uM preincubated for 15 mins before TNFalpha addition measured after 24 hrs by [methyl-3H]thymidine incorporation assay; format: functional
L929 [9] = test: Cytotoxicity against mouse L929 cells at 1 uM preincubated for 15 mins before TNFalpha addition measured after 24 hrs by [methyl-3H]thymidine incorporation assay; format: cell-based; conditions: l929, 24 h
L929 [10] = test: Cytotoxicity against mouse L929 cells at 1 uM preincubated for 15 mins before TNFalpha addition measured after 24 hrs by crystal violet staining; format: cell-based; conditions: l929, 24 h

SMILES: Oc1cc(O)c2c(c1)O[C@H](c1ccc(O)c(O)c1)[C@H](O)C2 [(-)-EPICATECHIN]
- EC50 (L929 [1]): 350 µM
- EC50 (L929 [2]): 300 µM

SMILES: O=c1c(O)c(-c2ccccc2)oc2cc(O)cc(O)c12 [GALANGIN]
- Activity (L929 [3]): Active
- Activity (L929 [4]): Active
- EC50 (L929 [1]): 50 µM
- Activity (L929 [2]): Dose-dependent effect
- EC50 (L929 [2]): 40 µM

SMILES: O=c1c(O)c(-c2ccc(O)c(O)c2)oc2cc(O)cc(O)c12 [QUERCETIN]
- Activity (L929 [3]): Active
- Activity (L929 [4]): Active
- EC50 (L929 [1]): 26 µM
- Activity (L929 [2]): Dose-dependent effect
- EC50 (L929 [2]): 20 µM

SMILES: O=c1c(O)c(-c2cc(O)c(O)c(O)c2)oc2cc(O)cc(O)c12 [MYRICETIN]
- Activity (L929 [3]): Active
- Activity (L929 [4]): Active
- EC50 (L929 [1]): 59 µM
- Activity (L929 [2]): Dose-dependent effect
- EC50 (L929 [2]): 55 µM

SMILES: O=c1cc(-c2ccc(O)cc2)oc2cc(O)cc(O)c12
- Activity (L929 [5]): Active
- Activity (L929 [6]): Active

SMILES: O=C1C[C@@H](c2ccc(O)cc2)Oc2cc(O)cc(O)c21 [NARINGENIN]
- Activity (L929 [5]): Active
- Activity (L929 [7]): 25%
- Activity (L929 [8]): 31%
- Activity (L929 [6]): Active

SMILES: CN[C@@H]1C[C@H]2O[C@@](C)([C@@H]1OC)n1c3ccccc3c3c4c(c5c6ccccc6n2c5c31)C(=O)NC4 [STAUROSPORINE]
- Activity (L929 [5]): Dose-dependent effect
- Activity (L929 [6]): Dose-dependent effect
- Activity (L929 [9]): Toxic
- Activity (L929 [10]): Toxic

SMILES: O=c1cc(-c2ccc(O)c(O)c2)oc2cc(O)cc(O)c12 [LUTEOLIN]
- EC50 (L929 [1]): > 250 µM
- EC50 (L929 [2]): > 250 µM

SMILES: COc1ccc(-c2oc3cc(O)cc(O)c3c(=O)c2O)cc1 [KAEMPFERIDE]
- Activity (L929 [3]): Active
- Activity (L929 [4]): Active
- EC50 (L929 [1]): 140 µM
- Activity (L929 [2]): Dose-dependent effect
- EC50 (L929 [2]): 129 µM

SMILES: O=c1c(O)c(-c2ccc(O)cc2O)oc2cc(O)cc(O)c12 [MORIN]
- Activity (L929 [3]): Active
- Activity (L929 [4]): Active
- EC50 (L929 [1]): 115 µM
- Activity (L929 [2]): Dose-dependent effect
- EC50 (L929 [2]): 120 µM

SMILES: O=C1c2c(O)cc(O)cc2O[C@H](c2ccc(O)c(O)c2)[C@H]1O [(+)-TAXIFOLIN]
- EC50 (L929 [1]): 240 µM
- EC50 (L929 [2]): 200 µM

SMILES: O=c1cc(-c2ccccc2)oc2cc(O)cc(O)c12
- Activity (L929 [5]): Active
- Activity (L929 [6]): Active

SMILES: O=c1c(O)c(-c2ccc(O)cc2)oc2cc(O)cc(O)c12 [KAEMPFEROL]
- Activity (L929 [3]): Active
- Activity (L929 [4]): Active
- EC50 (L929 [1]): 25 µM
- Activity (L929 [2]): Dose-dependent effect
- EC50 (L929 [2]): 20 µM

SMILES: O=C1C[C@@H](c2ccc(O)c(O)c2)Oc2cc(O)cc(O)c21 [ERIODICTYOL]
- EC50 (L929 [1]): 6 µM
- EC50 (L929 [2]): 4 µM

SMILES: CC(Cc1ccc(O)c(O)c1)C(C)Cc1ccc(O)c(O)c1 (configuration not stated) [NORDIHYDROGUAIARETIC ACID]
- EC50 (L929 [1]): 19 µM
- EC50 (L929 [2]): 28 µM

SMILES: C[C@@H]1O[C@@H](OC[C@H]2O[C@@H](Oc3c(-c4ccc(O)c(O)c4)oc4cc(O)cc(O)c4c3=O)[C@H](O)[C@@H](O)[C@@H]2O)[C@H](O)[C@H](O)[C@H]1O [RUTIN]
- Activity (L929 [3]): Active
- Activity (L929 [4]): Active
- EC50 (L929 [1]): > 250 µM
- Activity (L929 [2]): Dose-dependent effect
- EC50 (L929 [2]): 250 µM
